According to PMC9396876, “GRK3 is a poor prognosticator and serves as a therapeutic target in advanced gastric adenocarcinoma” (Journal of Experimental & Clinical Cancer Research : CR, 2022):

Key:
[1] = target: T1, GRK3 (G protein-coupled receptor kinase 3) (Homo sapiens, UniProt P35626); assay: in vitro kinase assay (Z-LYTE; ADP-Glo); format: biochemical
T1 construct: recombinant GRK3 protein
T1 sequence (P35626 1-688): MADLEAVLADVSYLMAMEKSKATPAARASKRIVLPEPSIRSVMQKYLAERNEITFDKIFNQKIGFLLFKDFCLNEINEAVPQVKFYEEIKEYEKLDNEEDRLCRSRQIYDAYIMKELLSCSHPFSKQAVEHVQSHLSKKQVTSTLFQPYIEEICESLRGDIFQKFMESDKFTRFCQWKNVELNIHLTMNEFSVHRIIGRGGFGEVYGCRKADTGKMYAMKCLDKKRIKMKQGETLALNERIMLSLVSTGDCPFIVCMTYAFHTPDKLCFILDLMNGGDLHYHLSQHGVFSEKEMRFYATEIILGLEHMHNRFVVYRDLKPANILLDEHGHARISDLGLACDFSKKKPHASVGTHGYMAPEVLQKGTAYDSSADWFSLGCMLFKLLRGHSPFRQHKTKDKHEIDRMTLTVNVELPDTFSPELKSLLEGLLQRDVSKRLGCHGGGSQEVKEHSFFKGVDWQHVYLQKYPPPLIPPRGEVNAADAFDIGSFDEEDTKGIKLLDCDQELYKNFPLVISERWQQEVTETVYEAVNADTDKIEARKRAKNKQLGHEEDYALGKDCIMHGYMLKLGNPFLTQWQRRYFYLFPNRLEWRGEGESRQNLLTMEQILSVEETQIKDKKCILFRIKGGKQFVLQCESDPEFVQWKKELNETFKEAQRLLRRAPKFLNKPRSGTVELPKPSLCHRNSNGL

GRK2 = target: T2, GRK2 (Homo sapiens, UniProt P25098); assay: in vitro kinase assay (Z-LYTE; ADP-Glo); format: biochemical
T2 sequence (P25098 1-689): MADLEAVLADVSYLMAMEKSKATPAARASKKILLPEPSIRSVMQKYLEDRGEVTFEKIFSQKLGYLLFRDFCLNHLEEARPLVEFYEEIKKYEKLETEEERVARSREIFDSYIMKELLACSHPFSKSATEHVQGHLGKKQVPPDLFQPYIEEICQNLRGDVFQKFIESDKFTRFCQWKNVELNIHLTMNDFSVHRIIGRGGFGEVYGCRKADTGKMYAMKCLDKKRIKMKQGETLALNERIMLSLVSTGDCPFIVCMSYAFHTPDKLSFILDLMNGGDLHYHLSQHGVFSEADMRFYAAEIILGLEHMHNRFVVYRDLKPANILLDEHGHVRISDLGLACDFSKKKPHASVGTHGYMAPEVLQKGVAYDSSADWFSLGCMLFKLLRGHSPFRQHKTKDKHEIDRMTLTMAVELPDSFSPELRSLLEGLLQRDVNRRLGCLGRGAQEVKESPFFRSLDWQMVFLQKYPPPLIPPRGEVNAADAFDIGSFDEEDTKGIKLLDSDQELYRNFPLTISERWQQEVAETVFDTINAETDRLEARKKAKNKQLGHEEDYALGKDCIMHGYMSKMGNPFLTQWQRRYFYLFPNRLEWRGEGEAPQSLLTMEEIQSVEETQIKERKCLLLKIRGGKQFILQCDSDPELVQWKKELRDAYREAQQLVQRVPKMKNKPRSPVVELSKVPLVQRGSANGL

Cn1cc(-c2[nH]c3cc(NC(=O)[C@H](N)C4CCCCC4)cc4c3c2C=NNC4=O)cn1 [LD2]
IC50 [1]: 82 nM | IC50 (GRK2): 1950 nM
